From ChEMBL document CHEMBL4411289, “Antinociceptive Potential of Zinnia grandiflora” (2019)
Active and inactive are the calls of the source. No cut-off for these calls is given here.

What was measured:
Mus musculus [1] = assay: Antinociceptive activity in ICR mouse assessed as reduction in licking time at 31.6 mg/kg, po dosed 30 mins before formalin injection and by formalin test; type: functional; parameters: scale not given: the % may be the effect or the level left
Mus musculus [2] = assay: Antinociceptive activity in ICR mouse assessed as reduction in licking time during phase 2 (tonic response phase) at 3.16 to 31.6 mg/kg, po dosed 30 mins before formalin injection and by formalin test; type: functional, organism-based
Mus musculus [3] = assay: Antinociceptive activity in ICR mouse assessed as reduction in licking time during phase 1 (acute phase) at 3.16 to 31.6 mg/kg, po dosed 30 mins before formalin injection and by formalin test; type: functional, organism-based

Row | Structure (SMILES) | Activity (Mus musculus [1]) | Activity (Mus musculus [2]) | Activity (Mus musculus [3])
1 | O=C(O)Cc1ccccc1Nc1c(Cl)cccc1Cl [DICLOFENAC] | 40.9% | – | –
2 | C=C[C@@]1(C)[C@H]2OC(=O)C(=C)[C@H]([C@@H]2OC(=O)/C(C)=C\C)[C@H](OC(=O)C(C)C)[C@@H]1C(=C)C(=O)O | – | Active | Active
